Assay [1] concerns the target T1, FAAH (Mus musculus, UniProt O08914).
T1 construct: A fragment of liver, left lung lobe and brain without cerebellum were removed; from tissue; host or cells: male NMRI mice; brain (without cerebellum) and liver homogenates
T1 sequence (O08914 1-579): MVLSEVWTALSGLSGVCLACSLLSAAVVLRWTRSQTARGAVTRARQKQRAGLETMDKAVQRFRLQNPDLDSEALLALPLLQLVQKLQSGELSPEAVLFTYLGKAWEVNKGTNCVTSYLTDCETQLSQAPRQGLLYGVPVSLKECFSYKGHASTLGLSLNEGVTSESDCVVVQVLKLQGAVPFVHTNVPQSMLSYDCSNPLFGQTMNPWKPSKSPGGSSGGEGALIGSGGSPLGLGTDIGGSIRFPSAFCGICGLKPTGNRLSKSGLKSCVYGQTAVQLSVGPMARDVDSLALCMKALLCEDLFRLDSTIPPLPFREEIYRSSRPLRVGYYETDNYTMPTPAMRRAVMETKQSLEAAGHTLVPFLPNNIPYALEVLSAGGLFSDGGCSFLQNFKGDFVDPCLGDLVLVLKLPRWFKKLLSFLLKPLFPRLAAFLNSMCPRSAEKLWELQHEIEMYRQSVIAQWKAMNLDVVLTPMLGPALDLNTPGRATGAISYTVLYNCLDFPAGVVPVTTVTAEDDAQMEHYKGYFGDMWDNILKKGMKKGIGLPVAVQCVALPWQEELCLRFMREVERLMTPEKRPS
Kind of assay: In vivo FAAH inhibition after oral dosing, remaining activity in brain homogenate (BRh, central nervous tissue). More on the design: species or system NMRI mice. As to conditions: brain homogenate, low value = strong inhibitor; for In Vivo BRh 3 mg·kg 8 h (remaining FAAH activity, % of control): 8 h after dosing; for In Vivo BRh 3 mg · kg · 8 h (remaining FAAH activity): 3 mg/kg oral. As to the method:
(§1) The in vivo test was performed according to the protocol described below. BRh indicates inhibition in central nervous tissue and LVh indicates inhibition in peripheral tissue, in this case liver.
(§2) The animals used for experiments were male NMRI mice (weighing 27-44 g) obtained from Interfauna Ibérica (Spain). Mice were kept 5 per cage, under controlled environmental conditions (12 hr light/dark cycle and room temperature 22±1° C.). Food and tap water were allowed ad libitum and the experiments were all carried out during daylight hours.
(§3) Animals were administered 30 mg/kg or 3 mg/kg compounds of the invention via oral route (8 ml/kg; compound suspended in 0.5% carboxymethylcellulose (CMC) or solubilized in water) or vehicle (controls) using animal feeding stainless steel curve needles (Perfectum, U.S.A.). Fifteen minutes before sacrifice animal were anesthetized with pentobarbital 60 mg/kg administered intraperitoneally. A fragment of liver, left lung lobe and brain without cerebellum were removed and put in plastic vials containing membrane buffer (3 mM MgCl2, 1 mM EDTA, 50 mM Tris HCl pH 7.4). Tissues were stored at −30° C. until analysis.
(§4) Animals were always fasted overnight before administration of compounds except for time points of >18 h, where food was removed on the morning of day of administration and the compound was administered in the afternoon of the same day. Animals were then given water but nothing else.
(§5) Tissues were thawed on ice and were homogenized in 10 volumes of membrane buffer (3 mM MgCl2, 1 mM EDTA, 50 mM Tris HCl pH 7.4) with either Potter-Elvejhem (brains—8 strokes at 500 rpm) or Heidolph Diax (livers—2 strokes at position 5 for 20 sec with 30 sec pauses).
(§6) Total protein in tissues was determined with the BioRad Protein Assay (BioRad) using a standard curve of BSA (50-250 μg/ml).
(§7) Reaction mix (total volume of 200 μl) contained: […] (2 μM AEA+5 nM ^3H-AEA), 0.1% fatty acid free BSA, 15 μg (brain), 5 μg (liver) or 50 μg (lung) protein, in 1 mM EDTA, 10 mM Tris pH 7.6. After a […] pre-incubation period at 37° C., reaction was started by the addition of the substrate solution (cold AEA+radiolabelled AEA+BSA). Reaction was carried out for 10 min (brain and lung) or […] (liver) before termination by the addition of 400 μl activated charcoal suspension (8 g charcoal in 32 ml 0.5 M HCl in continuous agitation). After a […] incubation period at room temperature with agitation, charcoal was sedimented by centrifugation in microfuge (10 min at 13000 rpm). 200 μl of the supernatant were added to 800 μl Optiphase Supermix scintillation cocktail previously distributed in 24-well plates. Counts per minute (cpm) were determined in a MicrobetaTriLux scintillation counter.
(§8) In each assay blanks (without protein) were prepared.
(§9) The percentage of remaining enzymatic activity was calculated in respect to controls and after blank subtraction.

Assay [2] has as its target T1, FAAH. Kind of assay: In vivo FAAH inhibition after oral dosing, remaining activity in liver homogenate (LVh, peripheral tissue). As to conditions: liver homogenate, low value = strong inhibitor; for In Vivo LVh 3 mg·kg 8 h (remaining FAAH activity, % of control): 8 h after dosing; for In Vivo LVh 3 mg · kg · 8 h (remaining FAAH activity): 3 mg/kg oral. More on the design: species or system NMRI mice. On the procedure: as §1, §2, §3, §4, §5, §6, §7, §8, §9

In the case of `COc1ccc(-c2cn(C(=O)N(C)C3CCCCC3)cn2)cc1-c1nn[nH]n1` [Compound no. 438, N-cyclohexyl-4-(4-methoxy-3-(2H-tetrazol-5-yl)phenyl)-N-methyl-1H-imidazole-1-carboxamide], the “In Vivo BRh 3 mg·kg 8 h (remaining FAAH activity, % of control)” value in assay [1] is 92.4 % of control. Moreover, the “In Vivo LVh 3 mg·kg 8 h (remaining FAAH activity, % of control)” value in assay [2] is 6.1 % of control.

As for `CN(C(=O)n1cnc(-c2ccc(F)c(O)c2)c1)C1CCOCC1` [Compound no. 500, 4-(4-fluoro-3-hydroxyphenyl)-N-methyl-N-(tetrahydro-2H-pyran-4-yl)-1H-imidazole-1-carboxamide], the “In Vivo BRh 3 mg · kg · 8 h (remaining FAAH activity)” value in assay [1] was 75.1 % of control. In addition, in assay [2], the “In Vivo LVh 3 mg · kg · 8 h (remaining FAAH activity)” value is 21.8 % of control.

Take `CN(C(=O)n1cnc(-c2cccc(-c3cccc(C(N)=O)c3)c2)c1)C1CCN(Cc2ccccc2)CC1` [Compound 550, N-(1-benzylpiperidin-4-yl)-4-(3′-carbamoylbiphenyl-3-yl)-N-methyl-1H-imidazole-1-carboxamide]: in assay [1], the “In Vivo BRh 3 mg · kg · 8 h (remaining FAAH activity)” value is listed as 94.3 % of control. For the same molecule, the “In Vivo LVh 3 mg · kg · 8 h (remaining FAAH activity)” value in assay [2] is 5.7 % of control.

Take `CN(C(=O)n1cnc(-c2cccnc2)c1)C1CCN(CCc2ccccc2)CC1` [Compound no. 488, N-methyl-N-(1-phenethylpiperidin-4-yl)-4-(pyridin-3-yl)-1H-imidazole-1-carboxamide]: the “In Vivo BRh 3 mg·kg 8 h (remaining FAAH activity, % of control)” value in assay [1] was 3.8 % of control. For the same molecule, the “In Vivo LVh 3 mg·kg 8 h (remaining FAAH activity, % of control)” value in assay [2] was 2 % of control.

Turning to `CCCN1CCC(N(C)C(=O)n2cnc(-c3cccc(C(=O)NO)c3)c2)CC1` [Compound 552, 4-(3-(hydroxycarbamoyl)phenyl)-N-methyl-N-(1-propylpiperidin-4-yl)-1H-imidazole-1-carboxamide], the “In Vivo BRh 3 mg · kg · 8 h (remaining FAAH activity)” value in assay [1] is reported as 90.2 % of control. In addition, the “In Vivo LVh 3 mg · kg · 8 h (remaining FAAH activity)” value in assay [2] was 45 % of control.

`CN(C(=O)n1cnc(-c2ccc(S(N)(=O)=O)cc2)c1)C1CCCCC1` [Compound no. 376, N-cyclohexyl-N-methyl-4-(4-sulfamoylphenyl)-1H-imidazole-1-carboxamide]: the “In Vivo BRh 3 mg·kg 8 h (remaining FAAH activity, % of control)” value in assay [1] was 95.3 % of control. In assay [2], the “In Vivo LVh 3 mg·kg 8 h (remaining FAAH activity, % of control)” value was 5.7 % of control.

Consider `Br.CN(C(=O)n1cnc(-c2ccc(O)c(F)c2)c1)C1CCN(Cc2ccccc2)CC1` [Compound no. 454, N-(1-benzylpiperidin-4-yl)-4-(3-fluoro-4-hydroxyphenyl)-N-methyl-1H-imidazole-1-carboxamide hydrobromide], for which the “In Vivo BRh 3 mg·kg 8 h (remaining FAAH activity, % of control)” value in assay [1] was 3.1 % of control. Also, in assay [2], the “In Vivo LVh 3 mg·kg 8 h (remaining FAAH activity, % of control)” value is listed as 3 % of control.

Turning to `CCN1CCC(N(C)C(=O)n2cnc(-c3ccc(O)c(F)c3)c2)CC1` [Compound no. 536, N-(1-ethylpiperidin-4-yl)-4-(3-fluoro-4-hydroxyphenyl)-N-methyl-1H-imidazole-1-carboxamide], the “In Vivo BRh 3 mg · kg · 8 h (remaining FAAH activity)” value in assay [1] is listed as 74.6 % of control. The “In Vivo LVh 3 mg · kg · 8 h (remaining FAAH activity)” value in assay [2] was 18.3 % of control.

In the case of `CN(C(=O)n1cnc(-c2ccc(O)c(-c3nn[nH]n3)c2)c1)C1CCCCC1` [Compound no. 439, N-cyclohexyl-4-(4-hydroxy-3-(2H-tetrazol-5-yl)phenyl)-N-methyl-1H-imidazole-1-carboxamide], the “In Vivo BRh 3 mg·kg 8 h (remaining FAAH activity, % of control)” value in assay [1] is recorded as 94.4 % of control. In assay [2], the “In Vivo LVh 3 mg·kg 8 h (remaining FAAH activity, % of control)” value was 58.6 % of control.

On to `COc1ccc(-c2cn(C(=O)N(C)C3CCCCC3)cn2)cc1NS(C)(=O)=O` [Compound no. 485, N-cyclohexyl-4-(4-methoxy-3-(methylsulfonamido)phenyl)-N-methyl-1H-imidazole-1-carboxamide], for which the “In Vivo BRh 3 mg·kg 8 h (remaining FAAH activity, % of control)” value in assay [1] is on record as 92.1 % of control. Moreover, the “In Vivo LVh 3 mg·kg 8 h (remaining FAAH activity, % of control)” value in assay [2] is on record as 15.1 % of control.

`CN(C(=O)n1cnc(-c2ccc(S(C)(=O)=O)cc2)c1)C1CCCCC1` [Compound no. 422, N-cyclohexyl-N-methyl-4-(4-(methylsulfonyl)phenyl)-1H-imidazole-1-carboxamide]: the “In Vivo BRh 3 mg·kg 8 h (remaining FAAH activity, % of control)” value in assay [1] is reported as 1.7 % of control. Further, the “In Vivo LVh 3 mg·kg 8 h (remaining FAAH activity, % of control)” value in assay [2] is 2.7 % of control.

For `CN(C(=O)n1cnc(-c2ccc(-c3nn[nH]n3)cc2)c1)C1CCCCC1` [Compound no. 380, 4-(4-(2H-tetrazol-5-yl)phenyl)-N-cyclohexyl-N-methyl-1H-imidazole-1-carboxamide], in assay [1], the “In Vivo BRh 3 mg·kg 8 h (remaining FAAH activity, % of control)” value is on record as 77.3 % of control. In assay [2], the “In Vivo LVh 3 mg·kg 8 h (remaining FAAH activity, % of control)” value is given as 51.3 % of control.

As for `Br.CN(C(=O)n1cnc(-c2ccc(O)c(O)c2)c1)C1CCN(Cc2ccccc2)CC1` [Compound no. 465, N-(1-benzylpiperidin-4-yl)-4-(3,4-dihydroxyphenyl)-N-methyl-1H-imidazole-1-carboxamide hydrobromide], in assay [1], the “In Vivo BRh 3 mg·kg 8 h (remaining FAAH activity, % of control)” value was 3.8 % of control. The “In Vivo LVh 3 mg·kg 8 h (remaining FAAH activity, % of control)” value in assay [2] is 3.1 % of control.

As to `CN(C(=O)n1cnc(-c2cccc(NC(=N)N)c2)c1)C1CCCCC1.Cl` [Compound 553, N-cyclohexyl-4-(3-guanidinophenyl)-N-methyl-1H-imidazole-1-carboxamide hydrochloride], the “In Vivo BRh 3 mg · kg · 8 h (remaining FAAH activity)” value in assay [1] is given as 72.3 % of control. Besides, the “In Vivo LVh 3 mg · kg · 8 h (remaining FAAH activity)” value in assay [2] was 15.4 % of control.

Take `COc1ccc(-c2cn(C(=O)N(C)C3CCCCC3)cn2)cc1/C(N)=N\O` [Compound no. 507, (E)—N-cyclohexyl-4-(3-(N′-hydroxycarbamimidoyl)-4-methoxyphenyl)-N-methyl-1H-imidazole-1-carboxamide]: in assay [1], the “In Vivo BRh 3 mg · kg · 8 h (remaining FAAH activity)” value is listed as 101.7 % of control. The “In Vivo LVh 3 mg · kg · 8 h (remaining FAAH activity)” value in assay [2] is reported as 34 % of control.

In the case of `CN(C(=O)n1cnc(-c2cccc(C(=O)NO)c2)c1)C1CCN(Cc2ccccc2)CC1` [Compound no. 423, N-(1-benzylpiperidin-4-yl)-4-(3-(hydroxycarbamoyl)phenyl)-N-methyl-1H-imidazole-1-carboxamide], in assay [1], the “In Vivo BRh 3 mg·kg 8 h (remaining FAAH activity, % of control)” value is listed as 90 % of control. For the same molecule, the “In Vivo LVh 3 mg·kg 8 h (remaining FAAH activity, % of control)” value in assay [2] is listed as 2.1 % of control.

As for `COc1ccc(-c2cn(C(=O)N(C)C3CCN(CCO)CC3)cn2)cc1F` [Compound no. 540, 4-(3-fluoro-4-methoxyphenyl)-N-(1-(2-hydroxyethyl)piperidin-4-yl)-N-methyl-1H-imidazole-1-carboxamide], the “In Vivo BRh 3 mg · kg · 8 h (remaining FAAH activity)” value in assay [1] is listed as 89.7 % of control. Besides, the “In Vivo LVh 3 mg · kg · 8 h (remaining FAAH activity)” value in assay [2] is listed as 33.7 % of control.

Consider `CN(C(=O)n1cnc(-c2ccc(O)cc2)c1)C1CCN(C(=O)OC(C)(C)C)CC1` [Compound no. 469, tert-butyl 4-(4-(4-hydroxyphenyl)-N-methyl-1H-imidazole-1-carboxamido)piperidine-1-carboxylate], for which the “In Vivo BRh 3 mg·kg 8 h (remaining FAAH activity, % of control)” value in assay [1] was 1.4 % of control. In addition, the “In Vivo LVh 3 mg·kg 8 h (remaining FAAH activity, % of control)” value in assay [2] was 0.7 % of control.

The values are drawn from patent US9353082B2, “Pharmaceutical compounds” (BIAL—PORTELA & CA, S.A., priority 2008, dated 2016).
